Assay results taken from ChEMBL document CHEMBL1201862, “PubChem BioAssay data set” (2004).
Activity calls are given as the source filed them.

What was measured:
[1] = blockade of melanocortin 4 receptor signaling – cell-based, plate reader, cherry pick, counter-screen for LGR2 antagonist project, dose response (AID 743444); type: functional;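 also: transfected HEK 293 cells stimulated with alpha-MSH peptide; potency of inhibitors of the alpha-MSH evoked signal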
[2] = A549 cell cytotoxicity, dose response, cytotoxicity control, plate reader, cherry-pick, antagonist series (AID 743412); type: functional, cell-based
[3] = blockers of bursicon-stimulated LGR2 cAMP reporter – cell-based, HEK293, CRE-luciferase reporter, cherry pick, set 2, dose response (AID 743343); type: functional;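 also: transfected cells were stimulated with diluted bursicon conditioned medium after compound addition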
[4] = toxicity toward HepG2 liver cells – cell-based, plate reader, cherry-pick, antagonist series, cytotoxicity control, dose response (AID 743416); type: functional
[5] = target: T1, Endoribonuclease toxin MazF (Escherichia coli K-12, UniProt P0AE70); test: substrate-only fluorescence increase artefacts – biochemical, single-stranded RNase substrate, counter-screen for MazEF activator project, dose response (AID 588502); type: functional
T1 sequence (P0AE70 whole entry): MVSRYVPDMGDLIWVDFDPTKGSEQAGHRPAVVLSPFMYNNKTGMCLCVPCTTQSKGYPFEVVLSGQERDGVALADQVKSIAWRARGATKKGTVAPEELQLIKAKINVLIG

[6] = target: T1, Endoribonuclease toxin MazF; test: activation of MazEF endoribonuclease cleavage – biochemical, fluorescence, single-stranded RNA substrate, uHTS hits, dose response (AID 588481); type: functional
[7] = blockers of HIV-1 envelope-mediated cell-cell fusion – cherry-pick, dose response (AID 652057); type: functional, cell-based
Cytochrome P450 1A2 = target: T2, Cytochrome P450 1A2 (Homo sapiens, UniProt P05177);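 also: PubChem cytochrome P450 panel assay, CYP1A2 panel member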
T2 sequence (P05177 whole entry): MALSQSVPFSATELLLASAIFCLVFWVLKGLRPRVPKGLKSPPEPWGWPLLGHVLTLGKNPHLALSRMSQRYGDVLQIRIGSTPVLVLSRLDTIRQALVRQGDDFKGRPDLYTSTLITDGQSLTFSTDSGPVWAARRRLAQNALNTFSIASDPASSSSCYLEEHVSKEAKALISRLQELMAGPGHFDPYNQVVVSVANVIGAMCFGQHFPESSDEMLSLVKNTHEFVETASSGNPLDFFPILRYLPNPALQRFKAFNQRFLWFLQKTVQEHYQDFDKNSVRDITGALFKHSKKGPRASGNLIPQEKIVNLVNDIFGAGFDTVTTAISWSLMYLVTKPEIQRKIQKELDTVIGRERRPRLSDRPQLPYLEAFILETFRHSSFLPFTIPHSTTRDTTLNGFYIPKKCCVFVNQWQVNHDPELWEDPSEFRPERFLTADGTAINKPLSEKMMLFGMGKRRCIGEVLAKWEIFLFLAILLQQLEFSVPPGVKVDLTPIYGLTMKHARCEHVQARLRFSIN

[8] = HIV-1 AD8 envelope cell-cell fusion blockers – cherry-pick, dose response (AID 652062); type: functional, cell-based;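 also: luciferase signal from cell-cell fusion driven by HIV-1 clade B AD8 Env; potency is for inhibitors of fusion seen as a drop in luminescence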
[9] = blockers of HIV-1 ZM109 envelope-driven cell-cell fusion – HeLa effector, CEM target cells, luciferase, cherry-pick, dose response (AID 652058); type: functional, cell-based;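 also: luciferase signal from HIV-1 Env mediated cell-cell fusion of effector and target cells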
[10] = off-target signal loss in HeLa-CEM21 co-culture – HeLa F-luc CTL cells, cherry-picked, counter-screen for HIV-1 Env fusion inhibitor project, dose response (AID 652040); type: functional, cell-based;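 also: potency for signal decrease marking cytotoxic or nonspecific inhibition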
HEK293 = test: EBV LMP1 TES2 canonical NF-kB signalling blockers – cell-based, HEK293, luciferase, cherry-pick, dose response (AID 588343); type: functional; conditions: Homo sapiens
[11] = target: T3, Zinc finger protein mex-5 (Caenorhabditis elegans, UniProt Q9XUB2); test: potency of MEX-5 RNA-binding blockers – biochemical, C. elegans, fluorescence polarization, dose response (AID 1960)
T3 sequence (Q9XUB2 whole entry): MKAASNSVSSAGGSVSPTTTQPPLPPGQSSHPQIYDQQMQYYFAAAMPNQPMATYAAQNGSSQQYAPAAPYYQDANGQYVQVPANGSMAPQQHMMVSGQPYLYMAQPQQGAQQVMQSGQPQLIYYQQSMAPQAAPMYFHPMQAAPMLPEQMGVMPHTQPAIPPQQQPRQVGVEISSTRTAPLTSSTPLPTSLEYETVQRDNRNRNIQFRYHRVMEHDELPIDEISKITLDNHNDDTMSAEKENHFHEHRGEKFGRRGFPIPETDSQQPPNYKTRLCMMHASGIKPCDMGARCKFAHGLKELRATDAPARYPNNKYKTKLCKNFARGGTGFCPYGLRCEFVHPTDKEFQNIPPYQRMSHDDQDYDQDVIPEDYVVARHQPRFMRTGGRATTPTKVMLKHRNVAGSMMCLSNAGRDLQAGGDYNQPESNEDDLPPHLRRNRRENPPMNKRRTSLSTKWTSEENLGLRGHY

[12] = target: T4, RNA-binding protein pos-1 (Caenorhabditis elegans, UniProt G5EF15); test: disruptors of C. elegans POS-1 RNA interaction – biochemical, fluorescence polarization, dose response (AID 1964);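 also: purified POS-1 fused to maltose binding protein made in E. coli; potency of compounds blocking POS-1 binding to fluorescent RNA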
T4 sequence (G5EF15 whole entry): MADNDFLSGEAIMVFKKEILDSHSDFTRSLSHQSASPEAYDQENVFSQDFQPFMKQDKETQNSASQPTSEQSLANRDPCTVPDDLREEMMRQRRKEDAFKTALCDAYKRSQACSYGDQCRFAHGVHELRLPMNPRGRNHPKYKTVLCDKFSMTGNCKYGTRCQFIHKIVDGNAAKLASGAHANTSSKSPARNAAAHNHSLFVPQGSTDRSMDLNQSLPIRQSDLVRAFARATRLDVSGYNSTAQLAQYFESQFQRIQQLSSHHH

SMILES	EC50 [5]	EC50 [6]	AC50 [7]	AC50 [8]	AC50 [9]	AC50 [10]	further results
Cc1ccoc1C(=O)Nc1ccc2ccccc2c1	–	–	–	–	–	–	AC50 [1]: 9.34 µM (active); AC50 [2]: > 52 µM (inactive); AC50 [3]: 7.48 µM (active); AC50 [4]: 40 µM (active)
CC1CC(=O)C2=C(C1)OC(N)=C(C#N)C2c1coc2ccccc2c1=O (stereo unspecified)	> 99 µM (inactive)	> 99 µM (inactive)	–	–	–	–	–
O=C(NC1CCCCC1)C(c1cccs1)N(Cc1cccs1)C(=O)c1ccco1 (stereo unspecified)	–	–	6.72 µM (active)	1.55 µM (active)	5.68 µM (active)	48.2 µM (active)	AC50 (Cytochrome P450 1A2): 20 µM (inconclusive)
C[C@H]1CN([C@@H](C)CO)S(=O)(=O)c2ccc(Br)cc2O[C@H]1CN(C)Cc1ccc(F)cc1	–	–	3.67 µM (active)	30.9 µM (active)	5.86 µM (active)	–	–
COc1ccc(-c2c(C)nn3c(C(F)(F)F)cc(C)nc23)cc1	–	–	–	–	–	17.8 µM (active)	–
O=C(c1ccc(Cl)cc1)N1CCN(CCOc2ccccc2)CC1	–	–	–	–	–	–	AC50 (HEK293): > 350 µM (inactive)
O=C(Nc1ccccc1)c1nn(-c2ccccc2)c(=O)cc1C(F)(F)F	> 99 µM (inactive)	> 99 µM (inactive)	–	–	–	–	EC50 [11]: > 300 µM (not active); EC50 [12]: > 300 µM (not active)
Cc1nc(SCC(=O)Nc2cc(C)on2)c2c3c(sc2n1)CCCC3	> 99 µM (inactive)	> 99 µM (inactive)	–	–	–	–	–
CCN(Cc1nc(O)c2ccc(Cl)cc2n1)C(=O)c1cc(C2CC2)nn1-c1ccccc1	–	–	2.67 µM (active)	4.62 µM (active)	5.14 µM (active)	6.32 µM (active)	–
